Laboratory results as given in patent US9357792B2, “Fermented cereal product obtained by fermentation of rye bran with a Lactobacillus curvatus strain” (priority 2001, dated 2016).

Legend:
[1] = system: H. pylori CCUG17875 binding to the Lewis b antigen; assay: RIA inhibition assay: H. pylori pre-treated with product, then binding to 125I-labeled Lewis b conjugate; parameters: species or system Helicobacter pylori; details: pretreated with 2 mM for 1 hour; FIG. 1B
[2] = system: H. pylori CCUG17875 adherence to human gastric mucosa; assay: H. pylori adherence in situ to histo-sections of human gastric mucosa; assay type: cell-based, Helicobacter pylori; details: after pretreatment with 2 mM
Protocol: Pretreatment of strain CCUG 17875 with soluble Lewis b antigen, with L. curvatus fermented rye bran and with ferric quinate is shown. Here, bacterial binding to 10 different gastric surface epithelium regions were estimated (value p<0.001(***), value p<0.01(**), value p<0.05(*)).
Bacterial adherence in situ was performed as described by Falk et al., 1993. Human biopsy samples of healthy gastric tissue were obtained from the Division for Gastroenterology, Norrland University Hospital, Umea, Sweden. The biopsies were taken from the antrum part of the stomach, then they were fixed in 4% buffered formalin and finally they were embedded in paraffin wax. Sections were stained with hematoxylin and eosin following standard procedures. H. pylori were first labeled with FITC, and bacterial adherence to the gastric mucous was then analyzed by the ability of L. curvatus-fermented rye-bran to inhibit bacterial adherence to re-hydrated histo-sections of human gastric epithelial cells in situ. For comparative inhibition analyzes, H. pylori was pre-incubated with Lewis b conjugate (10 μg/mL), and fermented rye-bran (1 mL) for 1 hour at room temperature. Then, as described above, the H. pylori bacterial cells were applied to the histo-sections. […]

`O=C(O)[C@]1(O)C[C@@H](O)[C@@H](O)[C@H](O)C1` [Quinic Acid, reference compound] was tested. Which “inhibition of H. pylori binding to the Lewis b antigen” value [1] did it give?
Its value is “no inhibition”.

Ferric Quinate was tested. Which “adherence of strain CCUG17875 to the gastric tissue section epithelium” value [2] did it give?
The value was “similarly much reduced”.

What about the “inhibition of H. pylori binding to the Lewis b antigen” value [1] of the same molecule?
Its value is 69%.
